Experimental data as given in ChEMBL document CHEMBL5608141, “Identification of compartment-specific drug sensitivities in CRC organoid-stroma co-cultures” (2024).
Where “and” joins values, the source holds several entries; their conditions need not be identical. Equal values may be shown once.

Tests used:
Type in all cases: functional, Homo sapiens
Design in all cases: dose or concentration left out as unconfirmed
Colon cancer organoid [1] = experiment: Identification of compartment-specific drug sensitivities in O06 CRC organoid-stroma F06 CAF co-cultures. Organoid is transduced with Lucferase2-P2A-EGFP lentivirus, fibroblast with Renilla-dsRed lentivirus. Dual-Glo Luciferase assay is used to report viability data.
Colon cancer organoid [2] = experiment: Identification of compartment-specific drug sensitivities in O14 CRC organoid-stroma F14 CAF co-cultures. Organoid is transduced with Lucferase2-P2A-EGFP lentivirus, fibroblast with Renilla-dsRed lentivirus. Dual-Glo Luciferase assay is used to report viability data.
Colon cancer organoid [3] = experiment: Identification of compartment-specific drug sensitivities in O20 CRC organoid-stroma F20 CAF co-cultures. Organoid is transduced with Lucferase2-P2A-EGFP lentivirus, fibroblast with Renilla-dsRed lentivirus. Dual-Glo Luciferase assay is used to report viability data.
[4] = Transduced with Lucferase2-P2A-EGFP lentivirus
[5] = Transduced with Renilla-dsRed lentivirus

SMILES	Cell Viability (Colon cancer organoid [1]; [4])	Cell Viability (Colon cancer organoid [1]; [5])	Cell Viability (Colon cancer organoid [2]; [4])	Cell Viability (Colon cancer organoid [2]; [5])	Cell Viability (Colon cancer organoid [3]; [4])	Cell Viability (Colon cancer organoid [3]; [5])
O=C(c1ccc(C(=O)N2CCC(N3CCCC3)CC2)c(Nc2ccccc2)c1)N1CCC(N2CCCC2)CC1	108.091%	96.0319%	131.975%	97.2232%	130.421%	96.2949%
COc1cc2c(NC3CCN(C(C)C)CC3)nc(N3CCC(F)(F)CC3)nc2cc1OCCCN1CCCC1	88.0521%	104.162%	78.7749%	75.7418%	136.596%	132.743%
CC(C)N(CCCNC(=O)Nc1ccc(C(C)(C)C)cc1)C[C@H]1O[C@@H](n2cc(Br)c3c(N)ncnc32)[C@H](O)[C@@H]1O	62.4885%	97.8527%	74.0278%	90.8718%	59.6009%	110.156%
COc1cc2c(cc1OCCCN1CCCC1)N=C(N)C21CCC1	84.9948%	83.704%	87.6121%	63.8775%	76.3645%	100.254%
CCOC(=O)CCNc1cc(N2CCc3ccccc3CC2)nc(-c2ccccn2)n1	103.039%	116.98%	102.142%	98.2806%	101.525%	127.032%
O=C(O)CNC(=O)c1c(O)c2ccccc2n(Cc2ccccc2)c1=O	145.736%	124.036%	107.659%	95.196%	96.6263%	149.859%
Cc1sc2c(c1C)C(c1ccc(Cl)cc1)=N[C@H](CC(=O)OC(C)(C)C)c1nnc(C)n1-2	107.283%	109.974%	146.34%	95.1093%	99.6993%	113.657%
CCCc1cc(C)[nH]c(=O)c1CNC(=O)c1cc(-c2ccc(N3CCN(C(C)C)CC3)nc2)cc2c1cnn2C(C)C	81.1391%	118.175%	84.6561%	97.5786%	59.2451%	157.842%
COc1ccc(CCc2nc3cc(-c4c(C)noc4C)ccc3n2C[C@H](C)N2CCOCC2)cc1Cl	78.634%	97.126%	147.618%	121.055%	96.1019%	133.846%
CCCOc1ccn2c(C(C)=O)cc(-c3ccccc3S(C)(=O)=O)c2c1	121.922%	129.269%	92.2028%	99.133%	150.252%	117.742%
COc1cc(C#N)ccc1S(=O)(=O)Nc1ccc2c(c1)cc(C)c(=O)n2C	94.9001%	111.598%	105.069%	87.2253%	96.9289%	124.149%
O=C(/C=C/N1C[C@H]2C[C@@H]1CN2c1ccccn1)c1ccccc1O	122.112%	121.159%	104.919%	81.7789%	99.3831%	109.392%
Cc1cc(=O)n(C)c2cc(N3C(=O)CC[C@H](NS(=O)(=O)CC(C)C)[C@H]3c3ccc(Cl)cc3)ccc12	117.914%	167.751%	95.8197%	121.413%	108.181%	166.434%
CCCS(=O)(=O)c1nc(NC2CC2)cc(-c2ccc3c(ccn3C3CC(C)(C)NC(C)(C)C3)c2)n1	80.022% and 93.4216%	88.9327% and 142.491%	124.727% and 116.36%	92.6394% and 115.077%	91.7549% and 133.424%	94.2313% and 119.463%
CCN(C(=O)CO)[C@H]1CN(/C(=N\C#N)Nc2cccc(OC(F)F)c2)N=C1c1ccc(Cl)c(Cl)c1	100.328%	102.729%	106.236%	108.187%	98.7267%	141.776%
CCC(=O)N1CCOc2c(cc(-c3ccc(OC)c(OC)c3)cc2OCC2CCCN(C)C2)C1 (configuration not stated)	113.999%	135.091%	132.169%	110.752%	85.7121%	123.175%

SMILES	Cell Viability (Colon cancer organoid [1]; [4])	Cell Viability (Colon cancer organoid [1]; [5])	Cell Viability (Colon cancer organoid [2]; [4])	Cell Viability (Colon cancer organoid [2]; [5])	Cell Viability (Colon cancer organoid [3]; [4])	Cell Viability (Colon cancer organoid [3]; [5])
O=C(NCC(=O)N1CCCC1)Nc1ccc2cnccc2c1	80.3687%	124.064%	110.898%	98.9067%	121.558%	100.064%
Cc1cc2c(cc1N1C(=O)c3cccc4c(CCCO)ccc(c34)C1=O)n(C)c(=O)n2C	83.3962%	164.269%	52.1608%	93.143%	35.202%	231.762%
Nc1ncnc2c1ccn2[C@@H]1O[C@H]([C@H](O)c2ccccc2)[C@@H](O)[C@H]1O	22.7938%	108.338%	25.5953%	72.0424%	28.7794%	179.519%
Cl.Cl.c1ccc([C@@H]2C[C@H]2NC2CCNCC2)cc1	78.4875%	97.0217%	85.8382%	107.738%	42.8532%	97.3617%
Cn1cc(CCn2cnc(-c3cnn(C)c3)c2-c2ccc(C#N)cc2)cn1	101.212%	117.261%	93.9691%	90.5921%	163.337%	107.326%
CCCCNNC(=O)c1ccc(Br)cc1	113.204%	110.004%	96.2748%	91.9269%	131.97%	114.511%
COc1cc(Nc2ccnc3ccc(Br)cc23)cc(OC)c1OC	11.1317%	122.349%	56.2839%	83.5621%	3.207%	235.19%
COc1cc(N(C)c2ccnc3ccc(C(F)(F)F)cc23)cc(OC)c1OC	62.3452%	117.147%	95.9474%	95.4836%	76.7382%	110.267%
Clc1cc2c(NC3CCCC3)nnc(-c3ccncc3)c2cc1Cl	131.765%	133.642%	104.198%	96.8835%	149.848%	128.6%
O=C(NC[C@H](O)CN1CCc2ccccc2C1)c1ccnc(NC2CCC2)c1	33.1368%	110.399%	42.6769%	91.2933%	43.0801%	143.569%
CN1C(=O)c2sccc2N(C)c2nc(Nc3ccc(S(N)(=O)=O)cc3)ncc21	23.972%	57.2364%	48.6334%	48.1427%	35.7299%	84.1947%
COc1c(C)cc(NC(=O)c2nn(Cc3ccc(F)cc3)c3c2CN(C(=O)c2ccc[nH]2)C[C@]3(C)C(N)=O)cc1C	66.5012%	112.674%	104.772%	92.7757%	107.405%	95.1299%
Cc1nnc2c3ccccc3c(N[C@@H](C)[C@H](c3ccccc3)N(C)C)nn12	95.7989%	115.114%	110.519%	106.748%	82.8594%	127.368%
C[C@H]1CC(=O)Nc2cc(C(=O)NCCC3CC3)ccc2N1C(=O)N1CC2CC2C1 (some centres not stated)	115.835%	132.849%	144.576%	93.1136%	106.68%	112.87%
Cl.O=C([C@@H](Cc1cccc(C(F)(F)F)c1)NS(=O)(=O)c1cc(F)c2c(c1)CCNC2)N1CCCC1	84.043%	115.078%	117.922%	108.808%	153.218%	150.248%
COc1cc(C(=O)N2CC[C@@H](O)[C@@H](N)C2)cc2nc(-c3cc4ccccc4n3CC3CC3)n(C)c12.Cl	124.227%	121.721%	110.648%	103.392%	99.5485%	114.018%
